Test results from US7601717B2, “Pterin analogs” (BioMarin Pharmaceutical Inc., priority 2008, dated 2009).

Columns and labels:
Assay type in all cases: in vitro ADME
Details in all cases: over a 60 minute period, compound remaining
[1] = Stability in human plasma
Procedure: (§1) The stability of various compounds as disclosed herein was tested in human and rat and in simulated gastric fluid. Each compound was tested over an hour period for concentration of the compound remaining at each time point. The results are shown in FIGS. 3 (human plasma stability), 4 (rat plasma stability), and 5 (simulated gastric fluid stability) for the compounds of Example 2, 3, 4, and 20.

[2] = Stability in simulated gastric fluid
Procedure: as §1

[3] = Stability in rat plasma
Procedure: as §1

CCC(=O)O[C@@H]([C@H](C)OC(=O)CC)[C@H]1CNc2nc(N)[nH]c(=O)c2N1C(=O)CC [Example 3, Propionic acid 1-(2-amino-4-oxo-5-propionyl-3,4,5,6,7,8-hexahydro-pteridin-6-yl)-2-Propionyloxy-propyl ester]
high level of stability: stability in human plasma [1] | stability in simulated gastric fluid [2] | stability in rat plasma [3]
